Values of other authors as cited in patent US10927398B2, “Compositions for CYP450 phenotyping using saliva samples” (Concordia University, Inc., priority 2015, dated 2021).
Read-outs that look alike come from different tables or passages of the source.

Experiments:
[1] = cited from earlier work
plasma protein = details: cited from earlier work
[2] = Table of Exemplary Drugs, CYP3A4
[3] = Table of Exemplary Drugs, CYP2D6
[4] = Table of Exemplary Drugs, CYP2C19
[5] = Table of Exemplary Drugs, CYP1A2
[6] = Table of Exemplary Drugs, CYP2C9

CCCCN(CCCC)CCC(O)c1cc2c(Cl)cc(Cl)cc2c2cc(C(F)(F)F)ccc12 (stereo not drawn) [Halofantrine (Halfan), Halofantrine]
HALF-LIFE [1, 2]: 140 to 240 h
PLASMA PROTEIN BINDING (plasma protein; [2]): 60-70% ^

Cc1ccc(-c2nc3ccc(C)cn3c2CC(=O)N(C)C)cc1 [Zolpidem (Ambien), Zolpidem]
HALF-LIFE ([1]; in vivo): 2.5 to 2.8 h

NC(=O)N1c2ccccc2C=Cc2ccccc21 [Carbamazepine (eg. Tegretol), Carbamazepine]
HALF-LIFE [1, 2]: 12 to 17 h
PLASMA PROTEIN BINDING (plasma protein; [2]): 76%

C1CCC(C(CC2CCCCN2)C2CCCCC2)CC1 (stereo not drawn) [Perhexiline]
HALF-LIFE [1, 3]: 12 to 18 h

CS(=O)(=O)CCNCc1ccc(-c2ccc3ncnc(Nc4ccc(OCc5cccc(F)c5)c(Cl)c4)c3c2)o1 [Lapatinib (Tykerb), Lapatinib]
HALF-LIFE [1, 2]: 24 h
PLASMA PROTEIN BINDING (plasma protein; [2]): >99%

CN[C@@H](C)Cc1ccccc1 [Dextromethamphetamine]
HALF-LIFE [1, 3]: 12 h

Cc1c(O)cccc1C(=O)N[C@@H](CSc1ccccc1)[C@H](O)CN1C[C@H]2CCCC[C@H]2C[C@H]1C(=O)NC(C)(C)C [Nelfinavir]
HALF-LIFE [1, 4]: 3.5 to 5 h
PLASMA PROTEIN BINDING (plasma protein; [4]): 98%

CCN(CC)CCCC(C)Nc1c2ccc(Cl)cc2nc2ccc(OC)cc12 (stereo not drawn) [Quinacrine]
HALF-LIFE [1, 2]: 120 h
PLASMA PROTEIN BINDING (plasma protein; [2]): 80-90% ^

O=C1CN=C(c2ccccc2Cl)c2cc([N+](=O)[O-])ccc2N1 [Clonazepam (Klonopin), Clonazepam]
HALF-LIFE ([1]; in vivo): 30 to 40 h
PLASMA PROTEIN BINDING (plasma protein; [2]): 85%

Cc1cc(-c2ccccc2)nnc1NCCN1CCOCC1 [Minaprine]
HALF-LIFE [1, 3]: 2 to 2.5 h

CCC(C)n1ncn(-c2ccc(N3CCN(c4ccc(OCC5COC(Cn6cncn6)(c6ccc(Cl)cc6Cl)O5)cc4)CC3)cc2)c1=O (stereo not drawn) [Itraconazole (Sporanox), Itraconazole]
HALF-LIFE [1, 2]: 35 to 64 h

CC[C@]1(O)C[C@H]2CN(CCc3c([nH]c4ccccc34)[C@@](C(=O)OC)(c3cc4c(cc3OC)N(C=O)[C@H]3[C@@](O)(C(=O)OC)[C@H](OC(C)=O)[C@]5(CC)C=CCN6CC[C@]43[C@@H]65)C2)C1 [Vincristine (Oncovin), Vincristine]
HALF-LIFE [1, 2]: 85 h

Cc1nc2n(c(=O)c1CCN1CCC(c3noc4cc(F)ccc34)CC1)CCCC2 [Risperidone]
HALF-LIFE [1, 3]: 3 to 20 h

COc1cc([C@@H]2c3cc4c(cc3[C@@H](O[C@@H]3O[C@@H]5CO[C@@H](c6cccs6)O[C@H]5[C@H](O)[C@H]3O)[C@H]3COC(=O)[C@H]23)OCO4)cc(OC)c1O [Teniposide]
HALF-LIFE [1, 4]: 5 h
HALF-LIFE [1, 2]: 5 h
PLASMA PROTEIN BINDING (plasma protein; [4]): >99%
PLASMA PROTEIN BINDING (plasma protein; [2]): >99%

CC(c1cc2ccccc2s1)N(O)C(N)=O (stereo not drawn) [Zileuton]
HALF-LIFE [1, 5]: 2.5 to 3.2 h
PLASMA PROTEIN BINDING (plasma protein; [5]): 93%

C/C(=C\c1csc(C)n1)[C@@H]1C[C@@H]2O[C@]2(C)CCC[C@H](C)[C@H](O)[C@@H](C)C(=O)C(C)(C)[C@@H](O)CC(=O)N1 [Ixabepilone (Ixempra), Ixabepilone]
HALF-LIFE [1, 2]: 52 h
PLASMA PROTEIN BINDING (plasma protein; [2]): 67-77% ^

CCCCNC(=O)NS(=O)(=O)c1ccc(C)cc1 [Tolbutamide]
HALF-LIFE [1, 6]: 4.5 to 6.5 h

O=C(CCCN1CC=C(n2c(=O)[nH]c3ccccc32)CC1)c1ccc(F)cc1 [Droperidol]
HALF-LIFE [1, 2]: 2 h

OCCOCCN1CCN(C2=Nc3ccccc3Sc3ccccc32)CC1 [Quetiapine (Seroquel), Quetiapine]
HALF-LIFE [1, 2]: 6 to 7 h
PLASMA PROTEIN BINDING (plasma protein; [2]): 83%

CCN(CC)CCNC(=O)c1cc(Cl)c(N)cc1OC [Metoclopramide]
HALF-LIFE [1, 3]: 5 to 6 h
PLASMA PROTEIN BINDING (plasma protein; [3]): 30%

CCCc1nn(C)c2c(=O)[nH]c(-c3cc(S(=O)(=O)N4CCN(C)CC4)ccc3OCC)nc12 [Sildenafil]
HALF-LIFE [1, 6]: 4 h
PLASMA PROTEIN BINDING (plasma protein; [6]): 96%
PLASMA PROTEIN BINDING (plasma protein; [2]): 96%

NS(=O)(=O)Cc1noc2ccccc12 [Zonisamide (Zonegran), Zonisamide]
PLASMA PROTEIN BINDING (plasma protein; [2]): 40-60% ^

CC/C(=C(\c1ccccc1)c1ccc(OCCN(C)C)cc1)c1ccccc1 [Tamoxifen]
HALF-LIFE [1, 5]: ~120 to 170 h
HALF-LIFE [1, 6]: 120 to 170 h
HALF-LIFE [1, 3]: 120 to 170 h
HALF-LIFE [1, 2]: 120 to 170 h
PLASMA PROTEIN BINDING (plasma protein; [5]): 99%
PLASMA PROTEIN BINDING (plasma protein; [6]): 99%
PLASMA PROTEIN BINDING (plasma protein; [3]): 99%
PLASMA PROTEIN BINDING (plasma protein; [2]): 99%

Cc1c(OCC(F)(F)F)ccnc1C[S+]([O-])c1nc2ccccc2[nH]1 (stereo not drawn) [Llansoprazole]
HALF-LIFE [1, 4]: 0.9 to 1.5 h
PLASMA PROTEIN BINDING (plasma protein; [4]): 97-99% ^

CC[C@]1(O)C[C@@H]2CN(CCc3c([nH]c4ccccc34)[C@@](C(=O)OC)(c3cc4c(cc3OC)N(C)[C@H]3[C@@](O)(C(=O)OC)[C@H](OC(C)=O)[C@]5(CC)C=CCN6CC[C@]43[C@@H]65)C2)C1 [Vinblastine (Velbane), Vinblastine]
HALF-LIFE [1, 2]: 24.8 h
PLASMA PROTEIN BINDING (plasma protein; [2]): 98-99.7% ^

CN1C(=O)NC(=O)C(C)(C2=CCCCC2)C1=O (stereo not drawn) [Hexobarbital]
PLASMA PROTEIN BINDING (plasma protein; [4]): 25%

CSc1ccc2c(c1)N(CCC1CCCCN1C)c1ccccc1S2 (stereo not drawn) [Thioridazine]
HALF-LIFE [1, 3]: 21 to 24 h

CN(CCOc1ccc(CC2SC(=O)NC2=O)cc1)c1ccccn1 (stereo not drawn) [Rosiglitazone]
HALF-LIFE [1, 6]: 3 to 4 h

Cc1ccc(-c2cc(C(F)(F)F)nn2-c2ccc(S(N)(=O)=O)cc2)cc1 [Celecoxib]
HALF-LIFE [1, 6]: 11 h
PLASMA PROTEIN BINDING (plasma protein; [6]): 97%

Fc1ccc([C@@H]2CCNC[C@H]2COc2ccc3c(c2)OCO3)cc1 [Paroxetine]
HALF-LIFE [1, 3]: 15 to 21 h
PLASMA PROTEIN BINDING (plasma protein; [3]): 93-95% ^

CC(NC(C)(C)C)C(=O)c1cccc(Cl)c1 (stereo not drawn) [Bupropion]
HALF-LIFE [1, 4]: 19 to 21.3 h
HALF-LIFE [1, 2]: 19 to 21.3 h
PLASMA PROTEIN BINDING (plasma protein; [4]): 84%
PLASMA PROTEIN BINDING (plasma protein; [2]): 84%

O=P1(N(CCCl)CCCl)NCCCO1 (stereo not drawn) [Cyclophosphamide]
HALF-LIFE ([1]; in vivo): 3 to 12 h
PLASMA PROTEIN BINDING (plasma protein; plasma): >60%

CC1OC2(CS1)CN1CCC2CC1 (stereo not drawn) [Cevimeline (Evoxac), Cevimeline]
HALF-LIFE [1, 2]: 4 to 6 h
PLASMA PROTEIN BINDING (plasma protein; [2]): <20%

COc1ccc(Cl)cc1C(=O)NCCc1ccc(S(=O)(=O)NC(=O)NC2CCCCC2)cc1 [Glibenclamide]
PLASMA PROTEIN BINDING (plasma protein; [6]): 99%

COCCCC/C(=N\OCCN)c1ccc(C(F)(F)F)cc1 [Fluvoxamine]
HALF-LIFE [1, 5]: ~14 to 16 h
HALF-LIFE [1, 3]: 15.6 h

CC(C)c1nc(CN(C)C(=O)N[C@H](C(=O)N[C@@H](Cc2ccccc2)C[C@H](O)[C@H](Cc2ccccc2)NC(=O)OCc2cncs2)C(C)C)cs1 [Ritonavir (Norvir), Ritonavir]
HALF-LIFE [1, 2]: 3 to 5 h

O=c1[nH]c2ccccc2n1C1CCN(CCCC(c2ccc(F)cc2)c2ccc(F)cc2)CC1 [Pimozide (Orap), Pimozide]
HALF-LIFE [1, 2]: 55 h

CN(C)CCC(c1ccc(Cl)cc1)c1ccccn1 (stereo not drawn) [Chlorphenamine]
PLASMA PROTEIN BINDING (plasma protein; [3]): 72%

CN(C)C[C@H]1CCCC[C@]1(O)c1cccc(O)c1 [O-desmethyltramadol]
HALF-LIFE [1, 3]: 9 h

C=C(C)[C@H]1CC=C(C)CC1 [Limonene]
HALF-LIFE [1, 4]: 12 to 24 h

CCCC(C)(COC(N)=O)COC(=O)NC(C)C (stereo not drawn) [Carisoprodol]
PLASMA PROTEIN BINDING (plasma protein; plasma): 60%

C[C@@H]1C[C@H]2[C@@H]3CCC4=CC(=O)C=C[C@]4(C)[C@@]3(F)[C@@H](O)C[C@]2(C)[C@@]1(O)C(=O)CO [Dexmethasone (Decadron), Dexmethasone]
PLASMA PROTEIN BINDING (plasma protein; plasma): 77%

CN1CCN(C(=O)O[C@H]2c3nccnc3C(=O)N2c2ccc(Cl)cn2)CC1 [Eszopiclone (Lunesta), Eszopiclone]
PLASMA PROTEIN BINDING (plasma protein; [2]): 52-59% ^
